Assay results published in patent US5086042A, “Peptides with sulfate ester groups” (Fisons Corporation, priority 1989, dated 1992).
Non-standard residues stand in square brackets, D forms with d. Residues, ends and D or L forms follow the SMILES beside them. sY = N[C@@H](Cc1ccc(OS(=O)(=O)O)cc1)C(=O)O

Test system: Male Sprague-Dawley rats
Assay type: in vivo
Conditions: rat, intraperitoneal; for feeding inhibition during the 0.5 hour feeding period: 0.3 μg/kg; for feeding inhibition during the 3 hour feeding period: 3 μg/kg; for % FEEDING INHIBITION 0.5 hr / % FEEDING INHIBITION 3 hr: 30 μg/kg, vs saline controls; for feeding inhibition during the 0.5 hour feeding period / % FEEDING INHIBITION 0.5 hr / % FEEDING INHIBITION 0.5 hr (values marked *): 0.5 hr feeding period; for feeding inhibition during the 3 hour feeding period / % FEEDING INHIBITION 3 hr: 3 hr feeding period; for % FEEDING INHIBITION 3 hr: IA means inactive; for % FEEDING INHIBITION 0.5 hr (values marked *): 300 μg/kg, <10% inhibition at 30 μg/kg
Method: The peptides of this invention have the ability to inhibit feeding activity in mammals. As a result they have utility in the prevention and treatment of obesity.
Male Sprague-Dawley rats (weighing 300-350 g) are individually caged and maintained on a 12 hr. light, dark cycle and trained for at least 14 days to feed during a three hr period of the dark cycle but not the 21 hours preceding that three hr period. The day of the study, rats are dosed intraperitoneally with saline (controls) or test compound (dissolved in saline; usually at a concentration of 0.3 to 300 micrograms of test compound per kg of rat weight). Food is introduced 10 minutes after administration of saline or test compound. […] The % feeding inhibition for the 1/2 hr and 3 hr feeding periods obtained by administering a dose of 30 μg/kg of test compound is given in Table 2 for CCK-8 and various compounds of the invention. For example, the % feeding inhibition obtained with CCK-8 (first line of Table 2) was 70% for the 1/2 hr feeding period and 25% for the 3-hour period.

Compound	feeding inhibition during the 0.5 hour feeding period	feeding inhibition during the 3 hour feeding period	% FEEDING INHIBITION 0.5 hr [%]	% FEEDING INHIBITION 3 hr [%]	% FEEDING INHIBITION 0.5 hr (values marked *) [%]
Hpp(SO3 sH)-Ile-Gly-Trp-Ahx-Asp-MePhe-NH2 [Hpp(SO3 H)-Ile-Gly-Trp-Ahx-Asp-MePhe-NH2]	20-72%	50-90%	98	100	–
CNC(=O)[C@H](Cc1ccccc1)NC(=O)[C@H](CC(=O)O)NC(=O)[C@H](CCSC)NC(=O)[C@H](Cc1c[nH]c2ccccc12)NC(=O)CNC(=O)[C@H](CCSC)NC(=O)[C@H](Cc1ccc(OS(=O)(=O)O)cc1)NC(=O)[C@@H](N)CC(=O)O [H-Asp-Tyr(SO 3 H)-Met-Gly-Trp-Met-Asp-Phe-NHMe]	–	–	–	–	13
Suc-Tyr(SO3 ° H)-Ahx-Gly-Trp-Ahx-Asp-MePhe-NH2	20-72%	50-90%	100	98	–
CC[C@H](C)[C@H](NC(=O)[C@H](Cc1ccc(OS(=O)(=O)O)cc1)NC(=O)[C@@H](N)CC(=O)O)C(=O)NCC(=O)N[C@@H](Cc1c[nH]c2ccccc12)C(=O)N[C@H](C(=O)N[C@@H](CC(=O)O)C(=O)N[C@@H](Cc1ccccc1)C(N)=O)[C@@H](C)CC [H-Asp-Tyr(SO3 H)-Ile-Gly-Trp-Ile-Asp-Phe-NH2] (HELM PEPTIDE1{D.[O=C([C@H](Cc1ccc(OS(=O)(=O)O)cc1)N[*:1])[*:2]].I.G.W.I.D.F.[am]}$$$$V2.0)	–	–	85	20	–
CSCC[C@H](NC(=O)[C@H](Cc1ccc(OS(=O)(=O)O)cc1)NC(=O)[C@H](N)CC(=O)O)C(=O)NCC(=O)N[C@@H](Cc1c[nH]c2ccccc12)C(=O)N[C@@H](CCSC)C(=O)N[C@@H](CC(=O)O)C(=O)N[C@@H](Cc1ccccc1)C(N)=O [H-DAsp-Tyr(SO3 H)-Met-Gly-Trp-Met-Asp-Phe-NH2]	–	–	99	40	–
CSCC[C@H](NC(=O)[C@H](Cc1ccc(OS(=O)(=O)O)cc1)NC(=O)[C@@H](N)CC(=O)O)C(=O)NCC(=O)N[C@@H](Cc1c[nH]c2ccccc12)C(=O)N[C@@H](CCSC)C(=O)N[C@@H](CC(=O)O)C(=O)N[C@@H](Cc1ccc([N+](=O)[O-])cc1)C(N)=O [H-Asp-Tyr(SO3 H)-Met-Gly-Trp-Met-Asp-Phe(4-NO2)-NH2]	–	–	43	17	–
iBuOCO-Tyr(SO3 H)-Ahx-Gly-Trp-Ahx-Asp-Phe-NH2	20-72%	50-90%	100	100	–
H-Asp-Tyr(SO3 H)-Met-Gly-Trp-Ahx-Asp-Phe-NH2	–	–	82	23	–
COc1ccc(C[C@H](NC(=O)[C@H](CC(=O)O)NC(=O)[C@H](CCSC)NC(=O)[C@H](Cc2c[nH]c3ccccc23)NC(=O)CNC(=O)[C@H](CCSC)NC(=O)[C@H](Cc2ccc(OS(=O)(=O)O)cc2)NC(=O)[C@@H](N)CC(=O)O)C(N)=O)cc1 [H-Asp-Tyr(SO3 H)-Met-Gly-Trp-Met-Asp-Tyr(Me)-NH2] (H-D[sY]MGWMDY(Me)-NH2)	–	–	–	–	72
CSCC[C@H](NC(=O)[C@H](Cc1ccc(OS(=O)(=O)O)cc1)NC(=O)[C@@H](N)CC(=O)O)C(=O)NCC(=O)N[C@@H](Cc1c[nH]c2ccccc12)C(=O)N[C@@H](CCSC)C(=O)N[C@@H](CC(=O)O)C(=O)N[C@@H](Cc1ccccc1)C(N)=O [CCK-8, Asp-Tyr(SO3 H)-Met-Gly-Trp-Met-Asp-Phe-NH2, reference compound]	–	–	70	25	–
CSCC[C@H](NC(=O)[C@H](Cc1ccc(OS(=O)(=O)O)cc1)NC(=O)[C@@H](N)CC(=O)O)C(=O)NCC(=O)N[C@@H](Cc1c[nH]c2ccccc12)C(=O)N[C@@H](CCSC)C(=O)N[C@@H](CC(=O)O)C(=O)N[C@@H](Cc1ccc(C)cc1)C(N)=O [H-Asp-Tyr(SO3 H)-Met-Gly-Trp-Met-Asp-Phe(4-Me)-NH2]	–	–	57	18	–
CSCC[C@H](NC(=O)[C@H](Cc1c[nH]c2ccccc12)NC(=O)CNC(=O)[C@@H](CCSC)NC(=O)[C@H](Cc1ccc(OS(=O)(=O)O)cc1)NC(=O)[C@@H](N)CC(=O)O)C(=O)N[C@@H](CC(=O)O)C(=O)N[C@@H](Cc1ccccc1)C(N)=O [H-Asp-Tyr(SO3 H)-DMet-Gly-Trp-Met-Asp-Phe-NH3]	–	–	17	–	–
CSCC[C@H](NC(=O)[C@H](Cc1ccc(OS(=O)(=O)O)cc1)NC(=O)[C@@H](N)CC(=O)O)C(=O)NCC(=O)N[C@@H](Cc1ccc2ccccc2c1)C(=O)N[C@@H](CCSC)C(=O)N[C@@H](CC(=O)O)C(=O)N[C@@H](Cc1ccccc1)C(N)=O [H-Asp-Tyr(SO3)-Met-Gly-Nal-Met-Asp-Phe-NH2] (HELM PEPTIDE1{D.[O=C([C@H](Cc1ccc(OS(=O)(=O)O)cc1)N[*:1])[*:2]].M.G.[O=C([C@H](Cc1ccc2ccccc2c1)N[*:1])[*:2]].M.D.F.[am]}$$$$V2.0)	–	–	–	–	52
CC(C)C[C@H](NC(=O)[C@H](Cc1ccc(OS(=O)(=O)O)cc1)NC(=O)[C@@H](N)CC(=O)O)C(=O)NCC(=O)N[C@@H](Cc1c[nH]c2ccccc12)C(=O)N[C@@H](CC(C)C)C(=O)N[C@@H](CC(=O)O)C(=O)N[C@@H](Cc1ccccc1)C(N)=O [H-Asp-Tyr(SO3 H)-Leu-Gly-Trp-Leu-Asp-Phe-NH2]	–	–	89	24	–
H-Asp-Tyr(SO3 H)-Ahx-Gly-Trp-Ahx-Asp-Phe-NH2	–	–	82	27	–
H-Asp-Tyr(SO3 H)-Met-Gly-Trp-Met-Asp-Tyr-NH2 (H-D[sY]MGWMDY-NH2; not fully specified)	–	–	–	–	23
